Earlier results in patent US20060018840A1, “Aerosolizable formulation comprising nicotine” (priority 2004, published 2006).

In the case of CC(O)C(=O)O (stereo not shown) [lactic acid], the pKa is given as “about 3.8”.
